System in the first series: not given
Assay: not given
Settings: not given
Sequence of human BACE1 (P56817 46-501): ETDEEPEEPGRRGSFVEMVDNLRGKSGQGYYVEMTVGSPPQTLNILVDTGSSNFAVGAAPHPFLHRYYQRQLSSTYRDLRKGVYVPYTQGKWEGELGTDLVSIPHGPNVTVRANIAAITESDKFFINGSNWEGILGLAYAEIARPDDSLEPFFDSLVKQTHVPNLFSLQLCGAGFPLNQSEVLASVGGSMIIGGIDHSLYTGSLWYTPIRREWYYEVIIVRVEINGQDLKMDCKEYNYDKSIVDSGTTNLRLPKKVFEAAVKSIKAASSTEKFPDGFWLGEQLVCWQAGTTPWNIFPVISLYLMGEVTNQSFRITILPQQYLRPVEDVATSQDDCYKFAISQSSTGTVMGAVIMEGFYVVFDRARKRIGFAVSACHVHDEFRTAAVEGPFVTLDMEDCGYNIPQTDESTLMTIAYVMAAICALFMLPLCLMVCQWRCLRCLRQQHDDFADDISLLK
For orientation: melting point means the temperature, or range, at which the solid turns liquid. In turn, `NC(N)=NC(=O)Cn1c(C(=O)c2ccccc2)ccc1-c1ccccc1` [Example 455, N″-[(2-benzoyl-5-phenyl-1H-pyrrol-1-yl)acetyl]guanidine] showed a melting point of 201 to 203 °C.
On to `N=C(N)NC(=O)Cn1c(Cc2cccs2)ccc1-c1ccccc1` [Example 460, N-[amino(imino)methyl]-2-[2-phenyl-5-(thien-2-ylmethyl)-1H-pyrrol-1-yl]acetamide], for which the melting point is 99 to 120 °C.
For the compound `N=C(N)NC(=O)Cn1c(C(=O)c2ccco2)ccc1-c1ccccc1` [Example 456], the melting point was 175 to 177 °C.
Same read-out and setting: the figure for `N=C(N)NC(=O)Cn1c(Cc2ccco2)ccc1-c1ccccc1` [Example 459, N-[amino(imino)methyl]-2-[2-(2-furylmethyl)-5-phenyl-1H-pyrrol-1-yl]acetamide] is 80 to 82 °C; for `N=C(N)NC(=O)Cn1c(Cc2ccccc2)ccc1-c1ccccc1` [Example 458, N-[(2-benzyl-5-phenyl-1H-pyrrol-1-yl)acetyl]guanidine] it is 155 to 158 °C.

Another series addresses human BACE1 (Homo sapiens, UniProt P56817). The experiment in a line: Fluorescent kinetic assay, human BACE1 (FRET peptide substrate WABC-6).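 Also: fluorescence monitored at excitation 320 nm and emission 420 nm over 30 min, with the substrate cleavage rate taken as the linear slope of the signal.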 It counts as biochemical.
Settings: not given
The IC50 is the midpoint of a concentration-inhibition curve. As for `N=C(NCc1cccc(N)c1)NC(=O)Cn1c(-c2ccccc2)ccc1C12CC3CC(CC(C3)C1)C2` [Example 421], the IC50 was in the range of 0.11 to 1 µM.
Consider `N/C(=N/C(=O)Cn1c(-c2ccccc2)ccc1C12CC3CC(CC(C3)C1)C2)NCCCO` [Example 395], for which the IC50 was 0.11 to 1 µM.

Still in this series, the particulars now being: fluorescent kinetic assay, 25 μM substrate WABC-6, pH 4.5, room temperature; read-out: IC50 (μM) BACE 1.
In the case of `N/C(=N/C(=O)Cn1c(-c2ccc(OCCC3OCCO3)cc2)ccc1-c1ccccc1Cl)NCCCO` [Example 316], the IC50 fell in the range of 0.11 to 1 µM.
With `CC[C@H](C)COc1ccc(-c2ccc(-c3ccccc3)n2CC(=O)N=C(N)N)cc1` [Example 283], the IC50 fell in the range of 1.1 to 5 µM.
On the same count and under the same terms, with `N#Cc1ccc(-c2ccc(-c3ccccc3)n2CC(=O)N=C(N)NCCCO)cc1` [Example 318] the figure was 1.1 to 5 µM.
`NC(=NC(=O)Cn1c(-c2ccccc2)ccc1-c1ccc(-c2ccccc2)cc1)NCCCO` [Example 325]: the IC50 lay within 0.11 to 1 µM.
As for `N#CCCc1ccc(-c2ccc(-c3ccccc3)n2CC(=O)NC(=N)N)cc1` [Example 454], the half-inhibitory concentration (IC50) is 1.1 to 5 µM.
The same measure, in the same setting: with `C=CCNC(=O)c1ccc(-c2ccc(-c3ccccc3)n2CC(=O)N=C(N)NCc2nc(C)cs2)cc1` [Example 424] the figure was 0.11 to 1 µM; with `C=CCCOc1ccc(-c2ccc(-c3ccccc3)n2CC(=O)N=C(N)N)cc1` [Example 273], 1.1 to 5 µM.
On the same count and under the same terms, the figure for `CC(C)CNC(N)=NC(=O)Cn1c(-c2ccccc2)ccc1C12CC3CC(CC(C3)C1)C2` [Example 407] is 1.1 to 5 µM; for `N#Cc1ccc(-c2ccc(-c3ccccc3)n2CC(=O)N=C(N)NCc2ccc(F)c(F)c2F)cc1` [Example 330] it is 1.1 to 5 µM; for `NC(=NC(=O)Cn1c(-c2ccccc2)ccc1C12CC3CC(CC(C3)C1)C2)NC1CCCCCC1` [Example 417] it is 0.11 to 1 µM.
On to `NC(N)=NC(=O)Cn1c(-c2ccccc2)ccc1-c1ccc(NC(=O)COc2ccccc2)cc1` [Example 242], for which the half-maximal inhibitory concentration (IC50) is 1.1 to 5 µM.
The same measure, in the same setting: with `NC(=NC(=O)Cn1c(-c2ccccc2)ccc1-c1ccc(C(=O)NCCO)cc1)NCCCO` [Example 464] the figure was 0.11 to 1 µM.
On to `CCN/C(N)=N\C(=O)Cn1c(-c2ccccc2)ccc1C12CC3CC(CC(C3)C1)C2` [Example 390], for which the 50% inhibitory concentration (IC50) lay within 0.11 to 1 µM.
Consider `NC(=NC(=O)Cn1c(-c2ccccc2)ccc1C12CC3CC(CC(C3)C1)C2)NCC1CCCO1` (centres unmarked) [Example 402], for which the IC50 was in the range of 0.11 to 1 µM.
The same measure, in the same setting: the figure for `C=CCNC(=O)c1ccc(-c2ccc(-c3ccccc3)n2CC(=O)N=C(N)NCCCO)cc1` [Example 463] is 0.11 to 1 µM.
`CCNC(=O)c1ccc(-c2ccc(-c3ccccc3)n2CC(=O)NC(N)=NCCCO)cc1` [Example 461, N-Ethyl-4-(1-{2-[N′-(3-hydroxy-propyl)-guanidino]-2-oxo-ethyl}-5-phenyl-1H-pyrrol-2-yl)-benzamide]: the IC50 was 0.11 to 1 µM.
With `CC(C)Cc1ccc(-c2ccc(-c3ccccc3)n2CC(=O)N=C(N)NCCCO)cc1` [Example 322], the IC50 was 0.11 to 1 µM.
With 4-n-propyl-piperidine [Example 185], the IC50 is 1.1 to 5 µM.
Take `CCCCCN/C(N)=N\C(=O)Cn1c(-c2ccccc2)ccc1C12CC3CC(CC(C3)C1)C2` [Example 392]: the IC50 was in the range of 1.1 to 5 µM.
Take `N#CCCCNC(=N)NC(=O)Cn1c(-c2ccccc2)ccc1C12CC3CC(CC(C3)C1)C2` [Example 393]: the IC50 lay in the range of 0.11 to 1 µM.
With `NC(=NC(=O)Cn1c(-c2ccccc2)ccc1-c1ccc(Oc2ccccc2)cc1)NCCCO` [Example 328], the 50% inhibitory concentration (IC50) fell in the range of 0.11 to 1 µM.
Turning to `N=C(N)NC(=O)Cn1c(-c2ccccc2)ccc1-c1ccccc1C(F)(F)F` [Example 452], the half-inhibitory concentration (IC50) was in the range of 1.1 to 5 µM.
On the same count and under the same terms, with `C=CCNC(=O)c1ccc(-c2ccc(-c3ccccc3)n2CC(=O)N=C(N)NCc2cccc(N)c2)cc1` [Example 426] the figure was 0.11 to 1 µM.
Still for that read-out and setting: with `CC(O)CNC(N)=NC(=O)Cn1c(-c2ccccc2)ccc1C12CC3CC(CC(C3)C1)C2` (centres unmarked) [Example 405] the figure was 0.11 to 1 µM.
Consider `C=CCCCOc1ccc(-c2ccc(-c3ccccc3Cl)n2CC(=O)NC(=N)NCCCO)cc1` [Example 313], for which the 50% inhibitory concentration (IC50) fell in the range of 0.11 to 1 µM.
Same read-out and setting: with `CCC(C)NC(=O)c1ccc(-c2ccc(-c3ccccc3)n2CC(=O)N=C(N)NCCCO)cc1` (centres unmarked) [Example 469] the figure was 0.11 to 1 µM; with `CC(C)c1ccc(-c2ccc(-c3ccccc3)n2CC(=O)N=C(N)NCc2ccc(F)c(F)c2F)cc1` [Example 331], 1.1 to 5 µM.
As to `CC(O)CNC(N)=NC(=O)Cn1c(-c2ccccc2)ccc1C12CC3CC(CC(C3)C1)C2` (centres unmarked) [Example 404], the IC50 fell in the range of 0.11 to 1 µM.
On to `CC(=O)OCCNC(N)=NC(=O)Cn1c(-c2ccccc2)ccc1C12CC3CC(CC(C3)C1)C2` [Example 394], for which the IC50 is 0.11 to 1 µM.
For the compound `CC(=O)c1ccc(Oc2ccc(-c3ccc(-c4ccccc4)n3CC(=O)N=C(N)NCCCO)cc2)cc1` [Example 329], the IC50 fell in the range of 0.11 to 1 µM.
With `NC(=NC(=O)Cn1c(-c2ccccc2)ccc1C12CC3CC(CC(C3)C1)C2)NCC(F)(F)F` [Example 408], the half-inhibitory concentration (IC50) is 0.11 to 1 µM.
For the compound `CCS(=O)(=O)N/C(N)=N\C(=O)Cn1c(-c2ccccc2)ccc1C12CC3CC(CC(C3)C1)C2` [Example 431, 2-[2-(1-adamantyl)-5-phenyl-1H-pyrrol-1-yl]-N-{(1Z)-amino[(ethyl-sulfonyl)amino]methylene}acetamide], the IC50 is 0.11 to 1 µM.
As to `C=CCNC(=O)c1ccc(-c2ccc(-c3ccccc3)n2CC(=O)N=C(N)NCc2nnc(C)o2)cc1` [Example 423], the concentration for half-maximal inhibition (IC50) fell in the range of 0.11 to 1 µM.
As for `CCC[C@H]1CC[C@H](c2ccc(-c3ccccc3)n2CC(=O)/N=C(\N)NCCCC#N)CC1` [Example 473, N-{(1E)-amino[(3-cyanopropyl)amino]methylene}-2-[2-phenyl-5-(trans-4-propylcyclohexyl)-1H-pyrrol-1-yl]acetamide], the half-maximal inhibitory concentration (IC50) lay in the range of 1.1 to 5 µM.

Source of the values: US7488832B2, “Azolylacylguanidines as β-secretase inhibitors” (Wyeth, priority 2005, dated 2009).
